Laboratory results published in US5976848A, “Method of identifying potential fungicides using dihydroorotate dehydrogenase inhibition assay” (priority 1992, dated 1999).
≈ marks a conversion by molar mass, not a printed value. Entries after “also recorded” stand apart in the source; their conditions may differ.

Tests used:
Botrytis cinerea = experiment: greenhouse tests against Botrytis cinerea; format: in vivo
Penicillium digitalum = experiment: greenhouse tests against Penicillium digitalum; format: in vivo
Aspergillus nidulans [1] = experiment: growth inhibition of Aspergillus nidulans; format: cell-based
Cephalosiorium = experiment: sensitivity of Cephalosporium to CCFQ; format: cell-based
Neurospora = experiment: sensitivity of Neurospora to CCFQ; format: cell-based
DHOD = DHOD in vitro tests; format: biochemical
[2] = target: T1, DHOD produced by mutant Aspergillus nidulans strains resistant to CCFQ (Aspergillus nidulans, UniProt G5EB61); experiment: inhibition of DHOD produced by CCFQ-resistant mutant strains; format: biochemical; conditions: DHOD from resistant mutant A. nidulans
T1 construct: V200E (preferred, MNNG, FGSC612) or A115V (EMS, FGSC610)
T1 sequence (G5EB61 1-520): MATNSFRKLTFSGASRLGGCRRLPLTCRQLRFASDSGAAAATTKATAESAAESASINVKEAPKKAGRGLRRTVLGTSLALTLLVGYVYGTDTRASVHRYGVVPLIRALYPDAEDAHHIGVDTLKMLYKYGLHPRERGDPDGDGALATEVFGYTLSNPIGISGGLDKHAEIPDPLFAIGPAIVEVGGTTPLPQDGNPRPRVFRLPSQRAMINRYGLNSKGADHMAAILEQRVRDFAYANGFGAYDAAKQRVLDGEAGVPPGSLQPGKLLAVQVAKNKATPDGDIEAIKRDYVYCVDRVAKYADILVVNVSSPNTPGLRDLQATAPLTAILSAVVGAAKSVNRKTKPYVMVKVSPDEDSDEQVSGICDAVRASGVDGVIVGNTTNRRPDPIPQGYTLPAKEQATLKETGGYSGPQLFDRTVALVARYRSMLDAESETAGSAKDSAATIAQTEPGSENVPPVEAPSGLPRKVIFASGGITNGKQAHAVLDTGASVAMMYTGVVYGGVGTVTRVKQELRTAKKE

Aspergillus nidulans [3] = experiment: physiological and biochemical responses of Aspergillus nidulans treated with CCFQ; format: cell-based
From the text: The physiological and biochemical responses caused by the experimental fungicide CCFQ are not characteristic of known modes of action. […] It causes an unusual effect on synthesis of nucleic acids in that incorporation of radiolabelled precursors is stimulated by treatment with CCFQ. […] Some media supplements overcame growth inhibition by CCFQ. […] All these observations are consistent with the primary target of CCFQ being an electron-transferring enzyme in the pyrimidine biosynthetic pathway. […] This is a novel fungicidal mode of action, and its discovery opens the opportunity to detect novel chemical compounds that attack the same target.

[4] = treatment of Aspergillus nidulans

Fc1ccc(Oc2ccnc3c(Cl)cccc23)c(Cl)c1 [CCFQ, 8-chloro-4-(2-chloro-4-fluorophenoxy)quinoline]
inhibition of Botrytis cinerea (Botrytis cinerea; 50 μg/ml, greenhouse tests): completely inhibits | inhibition of growth of Botrytis cinerea (Botrytis cinerea; no concentration stated): completely inhibits | inhibition of Penicillium digitalum (Penicillium digitalum; 50 μg/ml, greenhouse tests): completely inhibits | inhibition of growth of Penicillium digitalum (Penicillium digitalum; no concentration stated): completely inhibits | IC50 (Aspergillus nidulans [1]; against Aspergillus nidulans, read-out: IC50 (concentration that inhibits growth by 50%)): 0.15 µg/mL (≈ 0.487 µM) | inhibition of growth of Aspergillus (Aspergillus nidulans [1]; no concentration stated): inhibits the growth | sensitivity to CCFQ / growth inhibition (Cephalosiorium): inhibits the growth; also recorded: sensitive | sensitivity to CCFQ / growth inhibition (Neurospora): inhibits the growth; also recorded: sensitive | sensitivity of DHOD to CCFQ (DHOD): extremely sensitive | inhibition of DHOD of CCFQ-resistant mutant strains [2]: resistant to inhibition | reversal of growth inhibition by media supplements (Aspergillus nidulans [3]; combination of uracil and a free radical scavenger such as α-tocopherol): complete reversal | change in amino acid content (Aspergillus nidulans [3]; [4]): no significant changes | change in lipid composition (Aspergillus nidulans [3]; [4]): no significant changes | change in protein accumulation (Aspergillus nidulans [3]; [4]): no significant changes | change in respiration (Aspergillus nidulans [3]; [4]): no significant changes | effect on cell wall synthesis (Aspergillus nidulans [3]; [4]): perturbs cell wall synthesis in a non-specific manner | incorporation of radiolabelled precursors (synthesis of nucleic acids) (Aspergillus nidulans [3]; [4]): stimulated
